Structures can show the parent of a compound that is named as a salt.

The target in one experiment is T1, PC12 P2X receptor (Rattus norvegicus, UniProt P49653).
T1 construct: host or cells: HEK293 cells (oocytes are also named for the functional characterisation of clone 3)
T1 sequence (P49653 1-472): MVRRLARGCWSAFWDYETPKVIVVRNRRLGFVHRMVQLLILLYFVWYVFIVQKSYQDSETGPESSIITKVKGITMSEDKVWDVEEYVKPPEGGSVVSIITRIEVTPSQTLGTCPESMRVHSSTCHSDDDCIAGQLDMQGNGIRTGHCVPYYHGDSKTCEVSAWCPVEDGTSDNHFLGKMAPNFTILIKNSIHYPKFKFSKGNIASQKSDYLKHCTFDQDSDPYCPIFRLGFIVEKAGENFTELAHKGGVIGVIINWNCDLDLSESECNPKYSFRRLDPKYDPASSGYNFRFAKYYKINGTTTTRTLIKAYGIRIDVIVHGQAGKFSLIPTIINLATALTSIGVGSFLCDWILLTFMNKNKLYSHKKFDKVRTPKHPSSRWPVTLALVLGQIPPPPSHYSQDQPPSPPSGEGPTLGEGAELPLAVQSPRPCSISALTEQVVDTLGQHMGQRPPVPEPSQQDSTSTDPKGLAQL
Put plainly: functional properties of cloned P2X receptors (electrical recordings): PC12. The class given is cell-based. The conditions noted are these: for Ca++ block, PC12: Table A, extracellular calcium 30 mM in text. How it is done:
(§1) HEK 293 cells were transfected by the lipofectin method (Felgner et al., Proc. Nat'l. Acad. Sci. USA 84 7413-7417 (1987)) with P2X -plasmid. DNA concentration used was 1 mg/2 ml medium placed into a 35 mm petri dish containing four 11 mm diameter coverslips on which HEK cells were placed at 10,000 cells per coverslip. […] Currents were recorded from HEK 293 cells using whole-cell recording methods and the AXOPATCH™ 200 amplifier (Axon Instruments); patch pipettes (5 M.OMEGA.) contained (mM) Cs or K aspartate 140, NaCl 5, EGTA 11, HEPES 5. The external solution was (mM) NaCl 150, KCl2, CaCl2 2, MgCl2 1, HEPES 5 and glucose 11; the pH and osmolarity of both solutions were maintained at 7.3 and 305 mosmol/l respectively. All recordings performed at room temperature. Data acquisition and analysis were performed using pCLAMP™ and AXOGRAPH™ software (Axon Instruments). […] The pH and osmolarity of the solutions were 7.4 and 295 mosmol/l respectively. For single channel measurements, a […]™ 500 amplifier and outside-out recording methods were used (Adelman et al., Neuron 9 209-216 (1992)). Wax-coated patch pipettes (5-10 M.OMEGA.) contained (mM) K-gluconate 115, HEPES 5, BAPTA 5 and MgCl2 0.5, external solution was 96 mM NaCl, 2 mM KCl, 1.8 mM CaCl2, 1 mM MgCl2, 5 mM Hepes pH 7.6, and 5 mM sodium pyruvate.
(§2) The functional characterisation of the clone illustrated in FIG. 2 (referred to herein as clone 3) was carried out by electrical recordings from transfected HEK293 cells and from oocytes injected with the in vitro transcribed RNA, as described in Example 4 for the rat vas deferens P2X receptor. Table A summarizes the main properties of clone 3 as compared to those of rat vas/human bladder cDNA clone, and the PC12 cDNA clone (provided by David Julius and Tony Brake of the University of California at San Francisco).

The target in experiment [1] is T2, rat vas/human bladder P2X cDNA clone (Homo sapiens, UniProt P51575).
T2 construct: expressed in transfected cells; host or cells: HEK293 cells (oocytes are also named for the functional characterisation)
T2 sequence (P51575 1-399): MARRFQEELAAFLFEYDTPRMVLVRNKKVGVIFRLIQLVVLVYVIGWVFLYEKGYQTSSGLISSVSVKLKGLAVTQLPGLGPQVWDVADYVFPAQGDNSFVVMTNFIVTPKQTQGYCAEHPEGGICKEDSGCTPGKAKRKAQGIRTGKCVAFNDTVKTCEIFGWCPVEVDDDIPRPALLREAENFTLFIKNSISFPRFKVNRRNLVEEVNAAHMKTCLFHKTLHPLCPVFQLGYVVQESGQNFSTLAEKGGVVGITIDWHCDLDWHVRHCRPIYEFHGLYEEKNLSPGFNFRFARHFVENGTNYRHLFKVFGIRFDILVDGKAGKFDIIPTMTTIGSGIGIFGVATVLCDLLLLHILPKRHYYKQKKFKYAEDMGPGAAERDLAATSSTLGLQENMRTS
Put plainly: functional properties of cloned P2X receptors (electrical recordings): bladder. In kind it is cell-based. Particulars: Table A, extracellular calcium 30 mM in text. How it is done: DNA concentration used was 1 mg/2 ml medium placed into a 35 mm petri dish containing four 11 mm diameter coverslips on which HEK cells were placed at 10,000 cells per coverslip. […] Currents were recorded from HEK 293 cells using whole-cell recording methods and the AXOPATCH™ 200 amplifier (Axon Instruments); patch pipettes (5 M.OMEGA.) contained (mM) Cs or K aspartate 140, NaCl 5, EGTA 11, HEPES 5. […] All recordings performed at room temperature. Data acquisition and analysis were performed using pCLAMP™ and AXOGRAPH™ software (Axon Instruments). […] ATP was applied by U-tube typically for 1 s; data was sampled at 5 kHz in 2 s segments beginning 300 ms prior to onset of agonist (ATP) application and filtered at 1 kHz.

For experiment [2], the target named is T3, rat superior cervical ganglion P2X receptor (clone 3) (Rattus norvegicus, UniProt P51577).
T3 construct: The insert appeared to be a full length cDNA; expressed in transfected cells; host or cells: HEK293 cells transfected with pcDNA3 construct p464 (also oocytes injected with in vitro transcribed RNA)
T3 sequence (P51577 1-388): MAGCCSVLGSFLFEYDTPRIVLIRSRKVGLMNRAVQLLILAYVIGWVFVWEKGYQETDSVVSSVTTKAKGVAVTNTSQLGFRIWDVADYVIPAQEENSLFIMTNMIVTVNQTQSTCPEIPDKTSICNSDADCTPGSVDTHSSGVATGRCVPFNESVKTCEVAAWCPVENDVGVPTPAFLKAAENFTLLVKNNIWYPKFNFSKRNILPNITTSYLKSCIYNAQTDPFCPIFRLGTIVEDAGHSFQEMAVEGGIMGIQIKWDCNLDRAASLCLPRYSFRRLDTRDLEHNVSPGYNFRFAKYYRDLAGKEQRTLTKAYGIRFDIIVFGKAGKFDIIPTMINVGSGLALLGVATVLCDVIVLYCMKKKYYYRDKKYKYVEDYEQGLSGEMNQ
The experiment in a line: functional properties of cloned P2X receptors (electrical recordings): clone 3. The conditions noted are these: Table A, extracellular calcium 30 mM in text. In kind it is cell-based. The protocol:
as §1, §2

The next experiment addresses T4, hP2X (Homo sapiens, UniProt P51575).
T4 construct: expressed in transfected cells; host or cells: Xenopus oocytes injected with in vitro transcribed RNA
T4 sequence (P51575 1-399): T2 sequence (P51575 1-399)
The experiment in a line: antagonist inhibition of ATP-evoked currents in Xenopus oocytes expressing hP2X. The class given is cell-based. The protocol:
Human urinary bladder P2X cDNA, subcloned into the pBKCMV expression vector, was linearized with Notl, and transcribed in vitro with T3 polymerase in the presence of cap analogue m7G(5')ppp(5')G. Defolliculated Xenopus oocytes (Bertrand et al, Electrophysiology of neuronal nicotinic acetylcholine receptors expressed in Xenopus oocytes following nuclear injection of genes or cDNAs Meth Neurosci 4: 174-193 (1991)) were injected with 50 ng of human P2X in vitro transcribed RNA, and incubated at 18° C. for 2-6 days in the ND96 solution (mM): NaCl96, KCl2, MgCl2 1, CaCl2 2, sodium pyruvate 5, HEPES 5, ph 7.6-7.5, penicillin (10 U/ml), and streptomycin (10 μg/ml).
Oocytes were placed in a 1 ml chamber and superfused at 2-3 ml/min with ND96 solution with 0.1 mM BaCl2 replacing the 2 mM CaCl2 to prevent activation of endogenous calcium-activated chloride currents (Barish, A transient calcium-dependent chloride current in the immature Xenopus oocytes J Physiol 342: 309-325 (1983)). Currents were measured using a two-electrode voltage-clamp amplifier (Geneclamp Axon Instruments)at a holding potential of -60 mV. Microelectrodes were filled with 3 M KCl (0.5-2 M.OMEGA.). Data were collected using PClamp software (Axon Instruments). ATP and other purinoceptor agonists were applied by a U-tube perfusion system (Fenwick et al, A patch clamp study of bovine chromaffin cells and their sensitivity to acetylcholine J Physiol 331: 577-597 (1982)) placed close (200-500 μm) to the oocyte. […] Concentration response relationships to ATP and its analogs were determined by measuring the peak amplitude of responses to a 5 s application of agonist applied at 10 min intervals. Responses to agonists were normalized in each oocyte to the peak response evoked by 100 μM ATP; 100 μM ATP was usually applied at the beginning and at the end of an experiment to determine if there was any rundown of the response. […] Antagonists were applied both in the superfusate and together with ATP in the U-tube solution. Antagonists were superfused for 5-10 min prior to the application of ATP.
Concentration response curves for purinoceptor agonists were fitted with a Hill slope of 1. Equi-effective concentrations i.e. concentration of agonist, giving 50% of the response to 100 μM ATP, (EEC50) were determined from individual concentration response curves. […] Data are presented throughout as mean ± SEM for a given number of oocytes.

Another experiment relates to hP2X mRNA. The experiment in a line: induction of hP2X mRNA in HL60 cells by Northern blot. The conditions noted are these: 1.8 and 2.6 kb bands. The class given is cell-based, human. The protocol: HL60 cells (human promyelocytes ATCC CCL240) were passaged twice weekly in RPMI-1640 supplemented with 25 mnM HEPES, 2 mM Glutamax II, and 10% heat-inactivated fetal calf serum (GIBCO BRL) . For each experiment 33×10^6 cells were resuspended at 2.5×10^5 cells/ml in medium containing either phorbol mystate acetate (100 nM), 1. 1% DMSO, or dibutyryl cAMP (200 uM) (SIGMA) for the indicated times.
PolyA^+ RNAs were obtained from Clontech Laboratories Inc. (Palo Alto) except for the urinary bladder and HL60 mRNA which were prepared as described (Valera et al (1994)--supra) . Samples were quantified by measuring the O.D. at 260 nm, and by staining the membrane with methylene blue. The RNA were fractionated on a 1% agarose--6% formaldehyde gel and electroblotted to a non-charged nylon membrane (BDH). Prehybridisation at 68° C. was performed for 6 hours in hybridisation buffer (50% formamide, 5× SSC, 2% blocking buffer (Boehringer Mannheim), 0.1%6 laurolylsarcosine, 0.02% SDS). Hybridisation was overnight at 68° C. in fresh hybridisation buffer with a digoxigenin-UTP labelled riboprobe (100 ng/ml) corresponding to the entire hP2 × sequence. The membrane was washed at 68° C.; twice in 2× SSC+0.1% SDS, and twice in 0.1× SSC+0.1% SDS. Chemiluminescent detection of hybridisation was carried at room temperature as follows: the membrane was rinsed 5 min in buffer B1 (0.1 M maleic acid, 0.15 M NaCl, pH 7.5), saturated for 1 hour in 1% blocking buffer (B2), incubated 30 min with anti-digoxigenin-antibody alkaline phosphatase conjugated (750 u/ml, Boehringer Mannheim) diluted 1:15000 in B2, washed in B1+0.30% tween 20 (1× 5 min, 1× 15 min, 1× 1 h), equilibrated for 5 min in buffer B3 (0.1 M Tris HCl pH 9.5, 0.1 M NaCl, 50 mM MgCl2), incubated 45-60 sec in lumigen PPD (Boehringer Mannheim) diluted 1:100 in B3. The humid membrane was sealed in a plastic bag, incubated 15 min at 37° C., and exposed 15 to 20 min to Hyperfilm-ECL (Amersham). […]

The mark [3] stands for this setting: listed as Extracellular calcium.

In the case of `[Ca+2]` [Ca^++, calcium], the “Ca++ block, PC12” value is on record as “very strong” on PC12 P2X receptor and “inhibits the inward current” on PC12 P2X receptor (setting [3]). Also, the “Ca++ block, bladder” value in experiment [1] is given as “none”; in experiment [1] (setting [3]), “does not block current”. For the same compound, the “Ca++ block, clone 3” value is listed as “intermediate” in experiment [2] and “intermediate in sensitivity” in experiment [2] (setting [3]).
Take `O=S(=O)(O)c1cc(N=C=S)ccc1C=Cc1ccc(N=C=S)cc1S(=O)(=O)O` [DIDS, 4,4'-diisothiocyanatostilbene 2,2'-disulphonic acid, disodium salt]: the IC50 is above 100 µM on PC12 P2X receptor and around 1 µM against hP2X. Besides, the “inhibition of inward currents evoked by 10 μM ATP” value on hP2X (10 μM ATP (approximately EC90)) was “inhibited inward currents evoked by 10 μM ATP”. Besides, the “reversibility of inhibitory effects on washout” value on hP2X (DIDS 100 μM) is on record as “very slow to reverse on washout”.
Take `C[S+](C)[O-]` [DMSO]: in the experiment on hP2X mRNA, the “induction of P2X mRNA in HL60 cells” value was “produced an increase in P2X mRNA”.
On the same count and under the same terms, in the case of `CCCC(=O)Nc1ncnc2c1ncn2[C@@H]1O[C@@H]2COP(=O)(O)O[C@H]2[C@H]1OC(=O)CCC` [dibutryl cAMP, dibutyryl cAMP] it was “produced an increase in P2X mRNA”.
The same measure, in the same setting: in the case of `CCCCCCCCCCCCCC(=O)O[C@@H]1[C@@H](C)[C@@]2(O)[C@@H](C=C(CO)C[C@]3(O)C(=O)C(C)=C[C@@H]23)[C@@H]2C(C)(C)[C@]12OC(C)=O` [phorbol diesters, phorbol mystate acetate] it was “produced an increase in P2X mRNA”.

For the origin of these results see patent publication US5985603A, “P2x receptor DNA and protein sequence” (Glaxo Group Limited, priority 1994, dated 1999).
